Assay results published in PubChem BioAssay AID1845199 (Molecular Pharmacology Branch, DTP, NCI, 2023).
pIC50: −log10 of the molar value.

Tested on: 556581-035-R-J1 tumor spheroid viability, % test/control
Assay: Anticancer human tumor 556581-035-R-J1 patient-derived ovarian carcinoma cell line growth inhibition
Settings: spheroids with HUVEC and MSC; for pIC50: curve of first compound; for viability, T/C: stronger effect = lower value
In short: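 Complex spheroids of malignant cells with endothelial cells and mesenchymal stem cells; agents alone or combined, from near clinical Cmax (or 10 microM if unknown) down in half-log steps, 0.25% DMSO final.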

[1] = second compound 30 pM, first compound 0.00949 µM
[2] = second compound 30 pM, first compound 0.03 µM
[3] = second compound 30 pM, first compound 0.0949 µM
[4] = second compound 30 pM, first compound 0.3 µM
[5] = second compound 30 pM, first compound 0.949 µM
[6] = second compound 30 pM, first compound 3 µM
[7] = second compound 94.9 pM, first compound 0.00949 µM
[8] = second compound 94.9 pM, first compound 0.03 µM
[9] = second compound 94.9 pM, first compound 0.0949 µM
[10] = second compound 94.9 pM, first compound 0.3 µM
[11] = second compound 94.9 pM, first compound 0.949 µM
[12] = second compound 94.9 pM, first compound 3 µM
[13] = second compound 0.0003 µM, first compound 0.00949 µM
[14] = second compound 0.0003 µM, first compound 0.03 µM
[15] = second compound 0.0003 µM, first compound 0.0949 µM
[16] = second compound 0.0003 µM, first compound 0.3 µM
[17] = second compound 0.0003 µM, first compound 0.949 µM
[18] = second compound 0.0003 µM, first compound 3 µM
[19] = second compound 0.000949 µM, first compound 0.00949 µM
[20] = second compound 0.000949 µM, first compound 0.03 µM
[21] = second compound 0.000949 µM, first compound 0.0949 µM
[22] = second compound 0.000949 µM, first compound 0.3 µM
[23] = second compound 0.000949 µM, first compound 0.949 µM
[24] = second compound 0.000949 µM, first compound 3 µM
[25] = second compound 0.003 µM, first compound 0.00949 µM
[26] = second compound 0.003 µM, first compound 0.03 µM
[27] = second compound 0.003 µM, first compound 0.0949 µM
[28] = second compound 0.003 µM, first compound 0.3 µM
[29] = second compound 0.003 µM, first compound 0.949 µM
[30] = second compound 0.003 µM, first compound 3 µM
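Note: spheroids exposed to compounds for 7 days before viability read.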

Row | SMILES | pIC50 (second compound 30 pM) | pIC50 (second compound 94.9 pM) | pIC50 (second compound 0.0003 µM) | pIC50 (second compound 0.000949 µM) | pIC50 (second compound 0.003 µM) | viability, T/C [3] [%] | viability, T/C [4] [%] | viability, T/C [5] [%] | viability, T/C [6] [%] | viability, T/C [9] [%] | viability, T/C [10] [%] | viability, T/C [11] [%] | viability, T/C [12] [%] | viability, T/C [15] [%] | viability, T/C [16] [%] | viability, T/C [17] [%] | viability, T/C [18] [%] | viability, T/C [21] [%] | viability, T/C [22] [%] | viability, T/C [23] [%] | other results
1 | CNCc1ccc(-c2cc(-c3nc(-c4ccc(S(=O)(=O)C(C)C)cc4)cnc3N)on2)cc1 + COc1cc2c(cc1O)CCNC21CSC2c3c(OC(C)=O)c(C)c4c(c3C(COC1=O)N1C(O)C3Cc5cc(C)c(OC)c(O)c5C(C21)N3C)OCO4 | 5.79 | 5.91 | 6.14 | > 8.02 | > 8.02 | 108 | 108 | 69.4 | 27.1 | 105 | 96.1 | 61 | 13.6 | 107 | 94.3 | 36.5 | 11 | 25.6 | 9.62 | 2.92 | viability, T/C [1]: 99.4%; viability, T/C [2]: 108%; viability, T/C [7]: 105%; viability, T/C [8]: 102%; viability, T/C [13]: 94.4%; viability, T/C [14]: 97.1%; viability, T/C [19]: 28.1%; viability, T/C [20]: 38.3%; viability, T/C [24]: 0.33%; viability, T/C [25]: 0.74%; viability, T/C [26]: 0.64%; viability, T/C [27]: 0.49%; viability, T/C [28]: 0.47%; viability, T/C [29]: 0.42%; viability, T/C [30]: 0.33%
2 | Cc1sc2c(c1C)C(c1ccc(Cl)cc1)=NC(CC(=O)Nc1ccc(O)cc1)c1nnc(C)n1-2 (stereo not given) + COc1cc2c(cc1O)CCNC21CSC2c3c(OC(C)=O)c(C)c4c(c3C(COC1=O)N1C(O)C3Cc5cc(C)c(OC)c(O)c5C(C21)N3C)OCO4 | < 5.52 | < 5.52 | 6.11 | > 8.02 | > 8.02 | 83.8 | 80.1 | 72.1 | 63.5 | 87.4 | 75.8 | 71 | 54.9 | 80.3 | 64.4 | 47.4 | 35.4 | 15.9 | 5.84 | 1.81 | viability, T/C [1]: 107%; viability, T/C [2]: 101%; viability, T/C [7]: 112%; viability, T/C [8]: 102%; viability, T/C [13]: 90.1%; viability, T/C [14]: 88.2%; viability, T/C [19]: 21.7%; viability, T/C [20]: 18.8%; viability, T/C [24]: 0.31%; viability, T/C [25]: 0.52%; viability, T/C [26]: 0.55%; viability, T/C [27]: 0.44%; viability, T/C [28]: 0.36%; viability, T/C [29]: 0.97%; viability, T/C [30]: 1.24%
3 | Cn1ncnc1[C@H]1c2n[nH]c(=O)c3cc(F)cc(c23)N[C@@H]1c1ccc(F)cc1 + COc1cc2c(cc1O)CCNC21CSC2c3c(OC(C)=O)c(C)c4c(c3C(COC1=O)N1C(O)C3Cc5cc(C)c(OC)c(O)c5C(C21)N3C)OCO4 | < 5.52 | < 5.52 | 5.65 | > 8.02 | > 8.02 | 93.5 | 86.7 | 74.5 | 58.7 | 89.5 | 84.9 | 69.7 | 51.7 | 84.1 | 79.1 | 68.7 | 43.4 | 31.8 | 28.1 | 7.63 | viability, T/C [1]: 100%; viability, T/C [2]: 96.7%; viability, T/C [7]: 99.7%; viability, T/C [8]: 97.7%; viability, T/C [13]: 85.6%; viability, T/C [14]: 91.8%; viability, T/C [19]: 39.6%; viability, T/C [20]: 33.9%; viability, T/C [24]: 1.54%; viability, T/C [25]: 0.96%; viability, T/C [26]: 0.99%; viability, T/C [27]: 0.97%; viability, T/C [28]: 1.34%; viability, T/C [29]: 1.27%; viability, T/C [30]: 1.68%
4 | O=C(c1cc(Cc2n[nH]c(=O)c3ccccc23)ccc1F)N1CCN(C(=O)C2CC2)CC1 + COc1cc2c(cc1O)CCNC21CSC2c3c(OC(C)=O)c(C)c4c(c3C(COC1=O)N1C(O)C3Cc5cc(C)c(OC)c(O)c5C(C21)N3C)OCO4 | < 4.52 | < 4.52 | < 4.52 | > 7.02 | > 7.02 | 104 | 105 | 103 | 93.7 | 98.1 | 103 | 96.2 | 90 | 89.5 | 88.7 | 88.6 | 87.2 | 35 | 27.9 | 27.9 | viability, T/C (second compound 30 pM, first compound 9.49 µM): 79.7%; viability, T/C (second compound 30 pM, first compound 30 µM): 63.5%; viability, T/C (second compound 94.9 pM, first compound 9.49 µM): 75.6%; viability, T/C (second compound 94.9 pM, first compound 30 µM): 63%; viability, T/C (second compound 0.0003 µM, first compound 9.49 µM): 66.8%; viability, T/C (second compound 0.0003 µM, first compound 30 µM): 50.1%; viability, T/C [24]: 23.4%; viability, T/C (second compound 0.000949 µM, first compound 9.49 µM): 7.48%; viability, T/C (second compound 0.000949 µM, first compound 30 µM): 1.51%; viability, T/C [27]: 0.86%; viability, T/C [28]: 0.88%; viability, T/C [29]: 0.88%; viability, T/C [30]: 1.14%; viability, T/C (second compound 0.003 µM, first compound 9.49 µM): 1.42%; viability, T/C (second compound 0.003 µM, first compound 30 µM): 2.1%
